According to patent publication US7199121B2, “Protein tyrosine phosphatase inhibitor” (Institute of Molecular and Cell Biology, priority 2000, dated 2007):

Legend:
PTP = test: Bioassay for PTP inhibitory activity; type: biochemical; settings: for PTP inhibitory activity after prolonged storage of solution: TFA salt solution after prolonged storage; for PTP inhibitory activity of fresh solution: TFA salt, amount of 3 below 1 mole %; for PTP inhibitory activity in bioassay: isolated material, 1 and 2 contaminated with about 6-10% of 3
Description: HTS for inhibitory activity towards PTPα was performed in 96 well plates (Nunclon). Dephosphorylation of the substrate (pNPP) was measured in 180 μL reactions/well in assay buffer containing 50 mM sodium acetate (pH 5.5), 0.5 mg/mL BSA and 0.5 mM dithiothreitol. The purified enzyme PTPα (0.3 μg/well) and extracts (5 μL in 50% methanol) were preincubated for 5–10 min at room temperature in a volume of 170 μl. Reactions were initiated by adding 10 μL of substrate in assay buffer to a final concentration of 2 mM. For each plate, 6 reference control wells containing PTPα were preincubated with 5 μL 50% methanol at the same time as the test samples. As a positive control for PTPα inhibition, 1 μM Na3VO4, a potent inhibitor of PTPs, was added to some wells. Blank wells contained 5 μL 50% methanol, 2 mM pNPP in assay buffer and no enzyme. For each set of experiments (from 2–5 plates), reference controls in a separate plate were read at different time points to check the linearity of the reaction. Reactions were stopped with 25 μL KH2PO4 after 45–60 mins incubation at room temperature. The plates were read immediately in a multilabel counter (Wallac 1420 Victor). The OD405 of the reference wells ranged between 0.7–1.2, which represents <10% conversion of the substrate and falls within the linear part of the reaction. Percentage inhibition was determined using the formula: % Inhibition=[{(OD ref−OD blank)−(OD test−OD blank)}/(OD ref−OD blank)]×100 Phosphatase Assay: […]

CD45 = molecular target: T1, CD45 (Homo sapiens, UniProt P08575); test: Phosphatase assay (pNPP dephosphorylation), CD45; settings: 1 μM compound; phosphatase 1.0 nM; pNPP; average of three enzyme preparations ± S.D.
T1 sequence (P08575 599-1306 limits assumed): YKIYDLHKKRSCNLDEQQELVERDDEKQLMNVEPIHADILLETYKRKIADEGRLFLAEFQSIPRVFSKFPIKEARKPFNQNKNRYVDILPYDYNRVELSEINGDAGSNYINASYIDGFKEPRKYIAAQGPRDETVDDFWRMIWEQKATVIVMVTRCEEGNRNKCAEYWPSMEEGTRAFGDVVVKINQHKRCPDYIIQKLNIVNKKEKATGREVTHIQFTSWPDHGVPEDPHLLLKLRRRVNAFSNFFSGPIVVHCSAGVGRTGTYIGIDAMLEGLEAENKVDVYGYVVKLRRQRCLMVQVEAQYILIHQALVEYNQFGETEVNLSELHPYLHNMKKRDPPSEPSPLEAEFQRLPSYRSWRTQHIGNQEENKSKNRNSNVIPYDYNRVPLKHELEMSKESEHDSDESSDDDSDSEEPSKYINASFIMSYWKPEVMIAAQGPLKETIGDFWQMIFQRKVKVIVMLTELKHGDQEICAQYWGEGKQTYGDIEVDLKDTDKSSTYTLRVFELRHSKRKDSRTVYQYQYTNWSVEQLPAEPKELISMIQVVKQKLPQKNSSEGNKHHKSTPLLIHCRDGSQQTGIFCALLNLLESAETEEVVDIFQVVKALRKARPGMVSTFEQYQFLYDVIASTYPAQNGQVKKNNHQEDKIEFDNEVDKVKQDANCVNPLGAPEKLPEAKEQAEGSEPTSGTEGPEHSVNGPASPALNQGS
Description: (§1) All other PTPs described in the text were purchased from New England Biolabs. Dephosphorylation of pNPP was measured in 450 μL reactions containing 50 mM sodium acetate (pH 5.5, or pH 7 for CIP), 0.5 mg/mL BSA, 0.5 μM dithiothreitol, and 2 mM pNPP. Reactions with IPP also contained 2 mM Mn^2+. […] All reactions were carried out at 30° C. and terminated during the linear portion of the reaction.
(§2) [nM] refers to the concentration of phosphatase assayed. The numbers indicate percentage activities relative to respective control reactions without addition of 3, 4, or Na3VO4. The numbers represent the average of the activities measured with three separate enzyme preparations, each of which was assayed in duplicate±S.D.

LAR-D1 = molecular target: T2, LAR-D1 (Homo sapiens, UniProt P10586); test: Phosphatase assay (pNPP dephosphorylation), LAR-D1; settings: 1 μM compound; phosphatase 5.0 nM; pNPP; average of three enzyme preparations ± S.D.
T2 sequence (P10586 1352-1607 limits assumed): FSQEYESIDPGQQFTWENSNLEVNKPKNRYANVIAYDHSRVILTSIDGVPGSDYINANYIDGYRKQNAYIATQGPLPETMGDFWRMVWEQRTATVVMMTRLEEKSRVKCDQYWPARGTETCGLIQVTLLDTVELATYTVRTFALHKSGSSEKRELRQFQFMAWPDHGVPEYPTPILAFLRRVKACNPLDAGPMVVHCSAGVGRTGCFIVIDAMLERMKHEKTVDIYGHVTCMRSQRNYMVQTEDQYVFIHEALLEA
Description: (§3) Dephosphorylation of pNPP was measured in 450 μL reactions containing 50 mM sodium acetate (pH 5.5, or pH 7 for CIP), 0.5 mg/mL BSA, 0.5 μM dithiothreitol, and 2 mM pNPP. Reactions with IPP also contained 2 mM Mn^2+. […] All reactions were carried out at 30° C. and terminated during the linear portion of the reaction.
as §2

CIP = test: Phosphatase assay (pNPP dephosphorylation, pH 7), CIP; settings: for percentage activity of CIP relative to control: 1 μM compound, phosphatase 0.5 nM, pNPP, pH 7, average of three enzyme preparations ± S.D.; for effect on pNPP phosphatase activity of CIP: neutral pH
Description: as §1, §2

TCPTP = molecular target: T3, TCPTP (Homo sapiens, UniProt P17706); test: Phosphatase assay (pNPP dephosphorylation), TCPTP; settings: 1 μM compound; phosphatase 1.0 nM; pNPP; average of three enzyme preparations ± S.D.
T3 sequence (P17706 1-317 limits assumed): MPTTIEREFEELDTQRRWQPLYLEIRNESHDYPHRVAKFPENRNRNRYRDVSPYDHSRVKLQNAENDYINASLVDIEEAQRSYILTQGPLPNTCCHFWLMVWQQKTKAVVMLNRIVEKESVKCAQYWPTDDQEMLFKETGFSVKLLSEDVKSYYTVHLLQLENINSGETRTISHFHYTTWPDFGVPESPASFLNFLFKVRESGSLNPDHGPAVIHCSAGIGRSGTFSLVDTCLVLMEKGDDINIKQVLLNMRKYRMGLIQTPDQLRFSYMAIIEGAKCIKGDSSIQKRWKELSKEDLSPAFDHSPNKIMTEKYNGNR
Description: as §3, §2

εD1D2 = εD1D2 (Homo sapiens, UniProt P23469); test: Phosphatase assay (pNPP dephosphorylation), PTPε D1D2; settings: 1 μM compound; phosphatase 1.0 nM; pNPP; average of three enzyme preparations ± S.D.
Description: as §1, §2

αD1D2 = αD1D2 (Homo sapiens, UniProt P18433); test: Phosphatase assay (pNPP dephosphorylation), PTPα D1D2; settings: 1 μM compound; phosphatase 5.0 nM; pNPP; average of three enzyme preparations ± S.D.
Description: as §1, §2

λPP = molecular target: T4, λPP (Escherichia phage lambda, UniProt P03772); test: Phosphatase assay (pNPP dephosphorylation), λPP; settings: for percentage activity of λPP relative to control: 1 μM compound, phosphatase 5.0 nM, pNPP, average of three enzyme preparations ± S.D.
T4 sequence (P03772 1-221): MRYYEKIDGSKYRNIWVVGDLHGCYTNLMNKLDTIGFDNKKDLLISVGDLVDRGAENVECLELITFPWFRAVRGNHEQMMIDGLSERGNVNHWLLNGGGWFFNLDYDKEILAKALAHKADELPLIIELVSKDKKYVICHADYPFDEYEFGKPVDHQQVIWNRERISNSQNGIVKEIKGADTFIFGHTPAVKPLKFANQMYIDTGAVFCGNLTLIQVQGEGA
Description: as §1, §2

[1] = Stability in solution (HPLC analysis); type: physicochemical; settings: for amount reduced after incubation: aqueous solution, 52° C., 4 h; for stability in solutions: water, MeOH, DMSO
Source text: The structures of 1 and 2 are similar to the structure of a known pyroglutamyl peptidase inhibitor pyrizinostatin. Pyrizinostatin has the same two-ring system (compound 3) but with a ketone side chain. Both 1 and 2 are optically active. It is possible that 1 and 2 are enantioselectively synthesized by the microorganism starting from 3 and 5. […] Upon storage, and during the isolation and purification process, decomposition predominates. […] The formation of 3 was evidenced by HPLC analysis.

Solubility in solvents = type: physicochemical

Chain of αD1D2 (P18433 175-802): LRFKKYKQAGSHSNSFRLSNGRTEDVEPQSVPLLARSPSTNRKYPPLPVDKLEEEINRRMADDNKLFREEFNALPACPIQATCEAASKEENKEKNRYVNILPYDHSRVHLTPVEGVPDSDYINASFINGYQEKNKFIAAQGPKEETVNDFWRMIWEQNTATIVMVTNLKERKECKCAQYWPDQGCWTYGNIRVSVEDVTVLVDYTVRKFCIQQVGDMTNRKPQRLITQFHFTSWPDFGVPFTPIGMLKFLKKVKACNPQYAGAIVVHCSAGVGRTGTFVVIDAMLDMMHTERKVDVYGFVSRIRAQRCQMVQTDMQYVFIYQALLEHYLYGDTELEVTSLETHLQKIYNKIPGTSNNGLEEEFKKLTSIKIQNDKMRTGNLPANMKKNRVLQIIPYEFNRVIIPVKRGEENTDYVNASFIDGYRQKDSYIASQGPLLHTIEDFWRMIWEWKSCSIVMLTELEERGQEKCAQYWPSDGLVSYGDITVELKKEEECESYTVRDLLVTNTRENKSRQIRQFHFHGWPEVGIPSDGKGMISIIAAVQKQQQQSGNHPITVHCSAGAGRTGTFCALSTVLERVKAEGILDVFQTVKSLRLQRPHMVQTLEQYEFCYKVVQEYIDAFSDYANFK
Chain of εD1D2 (P23469 70-700 limits assumed): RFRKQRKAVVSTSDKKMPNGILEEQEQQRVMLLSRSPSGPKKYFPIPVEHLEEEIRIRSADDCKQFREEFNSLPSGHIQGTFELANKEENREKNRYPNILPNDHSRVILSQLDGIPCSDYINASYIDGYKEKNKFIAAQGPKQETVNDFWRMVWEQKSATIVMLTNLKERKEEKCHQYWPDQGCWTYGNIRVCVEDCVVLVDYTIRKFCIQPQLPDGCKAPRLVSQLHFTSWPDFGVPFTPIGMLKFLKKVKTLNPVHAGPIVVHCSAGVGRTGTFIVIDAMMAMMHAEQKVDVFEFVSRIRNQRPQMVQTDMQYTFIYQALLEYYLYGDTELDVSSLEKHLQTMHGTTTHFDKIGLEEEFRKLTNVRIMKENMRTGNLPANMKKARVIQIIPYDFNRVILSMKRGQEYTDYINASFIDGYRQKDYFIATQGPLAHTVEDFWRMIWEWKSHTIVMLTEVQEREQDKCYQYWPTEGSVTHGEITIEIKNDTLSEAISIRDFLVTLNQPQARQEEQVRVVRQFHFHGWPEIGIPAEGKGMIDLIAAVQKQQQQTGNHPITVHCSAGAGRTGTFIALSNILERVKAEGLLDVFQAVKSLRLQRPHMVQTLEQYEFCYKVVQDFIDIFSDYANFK

SMILES	effect on in vitro activity of the PTPs tested (PTP; 1 μM, receptor and non-receptor PTPs)	percentage activity of CD45 relative to control (CD45) [%]	percentage activity of LAR-D1 relative to control (LAR-D1) [%]	percentage activity of CIP relative to control (CIP) [%]	effect on pNPP phosphatase activity of CIP (CIP)	percentage activity of TCPTP relative to control (TCPTP) [%]	percentage activity of εD1D2 relative to control (εD1D2) [%]	percentage activity of αD1D2 relative to control (αD1D2) [%]	effect on λPP activity (λPP; 1 μM)	percentage activity of λPP relative to control (λPP) [%]	PTP inhibitory activity after prolonged storage of solution (PTP)	PTP inhibitory activity of fresh solution (PTP)	PTP inhibitory activity in bioassay (PTP)	amount reduced after incubation [1] [%]	stability in solutions [1]	solubility in DMSO, methanol and water (Solubility in solvents)	solubility in dichloromethane, chloroform and hexanes (Solubility in solvents)
Cn1nc2c(nc1=O)n(C)c(=O)n2C [Compound 4, 2,5,7-trimethyl-2,7-dihydro-5H-imidazo[4,5-e]-1,2,4-triazine-3,6-dione]	negligible effects	96 ± 1.0	97 ± 1.5	99 ± 4.0	neither compound had any detectable effect	99 ± 2.0	99 ± 1.0	98 ± 0.5	unaffected	100 ± 6.0							
[Na+].[Na+].[Na+].[O]=[V]([O-])([O-])[O-] [Na3VO4, sodium orthovanadate, reference compound]		14 ± 0.5	26 ± 1.0	98 ± 3.0	lack of effect	31 ± 5.0	18 ± 2.0	24 ± 1.5		49 ± 3.0							
CN1N=C2N(C)C(=O)N(C)C(=O)C2(C2NC(N)=NC2=O)NC1=O (single isomer, unassigned) [Compound 2, 4a-(2-amino-5-oxo-4,5-dihydro-3H-imidazol-4-yl)-2,4,4a,8-tetrahydro-2,6,8-trimethyl-pyrimido[5,4-e]-1,2,4-triazine-3,5,7(6H)-trione]											became active	inactive	much weaker inhibitors	85	unstable	soluble	insoluble
CN1N=C2N(C)C(=O)N(C)C(=O)C2(C2NC(N)=NC2=O)NC1=O (single isomer, unassigned) [Compound 1, 4a-(2-amino-5-oxo-4,5-dihydro-3H-imidazol-4-yl)-2,4,4a,8-tetrahydro-2,6,8-trimethyl-pyrimido[5,4-e]-1,2,4-triazine-3,5,7(6H)-trione]											became active	inactive	much weaker inhibitors	62	unstable	soluble	insoluble
